Assay results: US20250034173A1, “PYRIDO[4,3-D]PYRIMIDINE COMPOUNDS” (PFIZER INC., priority 2023, published 2025)

What was measured:
[1] = test system: H358 (non-small cell lung cancer cell line); assay: KRAS Cell Titer Glo (CTG) cell proliferation assay, H358; assay type: cell-based; details: Homo sapiens, NCI-H358, 168 h; H358 cells, 7-day CTG, geomean IC50
Outline: (§1)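 Compounds pre-dispensed in 0.1% DMSO before seeding H358 (300 cells/well), SW620 (750) or PANC08.13 (600); 7-day exposure at 37 °C, 5% CO2. Viability by CellTiter-Glo luminescence after 15 min at room temperature. Percent effect normalised to DMSO (0%) and 1 uM trametinib (100%); geomean IC50.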

[2] = test system: PANC08.13 (pancreatic cancer cell line); assay: KRAS Cell Titer Glo (CTG) cell proliferation assay, PANC08.13; assay type: cell-based; details: Homo sapiens, PANC-08-13, 168 h; PANC08.13 cells, 7-day CTG, geomean IC50
Outline: as §1

[3] = test system: SW620 (colorectal cancer cell line); assay: KRAS Cell Titer Glo (CTG) cell proliferation assay, SW620; assay type: cell-based; details: Homo sapiens, SW-620, 168 h; SW620 cells, 7-day CTG, geomean IC50
Outline: as §1

[4] = target: KRAS G12C (Homo sapiens (Human), UniProt P01116, G12C); assay: SPR binding affinity and kinetics, GTPγS-loaded KRAS G12C; details: GTPγS loaded protein, geomean
Outline: (§2)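 SPR; dissoc ≥3600 s; no extra regeneration; fit quality by c2 + residual randomness.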

[5] = target: NRAS Wild Type (Homo sapiens (Human), UniProt P01111); assay: SPR binding affinity and kinetics, GTPγS-loaded NRAS Wild Type; details: GTPγS loaded protein, geomean
From the text: (§3) No additional regeneration was used.
(§4) Compound dissociation was monitored for at least 3600 seconds. […] No additional regeneration was used.
(§5) The adequateness of the fit was judged by c2 values and the randomness of residue distribution.

[6] = target: KRAS G12D (Homo sapiens (Human), UniProt P01116, G12D); assay: SPR binding affinity and kinetics, GTPγS-loaded KRAS G12D; details: GTPγS loaded protein, geomean
Outline: as §2

[7] = target: KRAS Wild Type (Homo sapiens (Human), UniProt P01116); assay: SPR binding affinity and kinetics, GTPγS-loaded KRAS Wild Type; details: GTPγS loaded protein, geomean
Outline: as §2

[8] = target: KRAS G12V (Homo sapiens (Human), UniProt P01116, G12V); assay: SPR binding affinity and kinetics, GTPγS-loaded KRAS G12V; details: GTPγS loaded protein, geomean
Outline: as §2

[9] = target: HRAS Wild Type (Homo sapiens (Human), UniProt P01112); assay: SPR binding affinity and kinetics, GTPγS-loaded HRAS Wild Type; details: GTPγS loaded protein, geomean
From the text: as §3, §4, §5

KRAS G12C, sequence (P01116 other isoform, or with tags, fused parts or gaps G12C): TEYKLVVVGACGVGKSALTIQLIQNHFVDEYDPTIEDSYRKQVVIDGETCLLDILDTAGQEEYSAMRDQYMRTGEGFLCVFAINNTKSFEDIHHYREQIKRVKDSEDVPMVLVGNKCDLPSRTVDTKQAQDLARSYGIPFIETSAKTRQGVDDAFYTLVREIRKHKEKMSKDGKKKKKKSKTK
KRAS Wild Type, sequence (P01116 other isoform, or with tags, fused parts or gaps): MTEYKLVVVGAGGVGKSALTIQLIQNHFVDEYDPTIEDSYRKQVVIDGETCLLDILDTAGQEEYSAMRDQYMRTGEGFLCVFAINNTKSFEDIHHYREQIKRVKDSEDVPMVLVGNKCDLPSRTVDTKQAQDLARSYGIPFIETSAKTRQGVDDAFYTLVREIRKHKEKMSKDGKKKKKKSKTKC
KRAS G12V, sequence (P01116 other isoform, or with tags, fused parts or gaps G12V): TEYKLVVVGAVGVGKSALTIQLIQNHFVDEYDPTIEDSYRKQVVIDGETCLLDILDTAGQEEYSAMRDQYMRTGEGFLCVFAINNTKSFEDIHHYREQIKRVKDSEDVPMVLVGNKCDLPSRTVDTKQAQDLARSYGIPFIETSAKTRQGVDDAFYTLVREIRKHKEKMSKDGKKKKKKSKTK
KRAS G12D, sequence (P01116 other isoform, or with tags, fused parts or gaps G12D): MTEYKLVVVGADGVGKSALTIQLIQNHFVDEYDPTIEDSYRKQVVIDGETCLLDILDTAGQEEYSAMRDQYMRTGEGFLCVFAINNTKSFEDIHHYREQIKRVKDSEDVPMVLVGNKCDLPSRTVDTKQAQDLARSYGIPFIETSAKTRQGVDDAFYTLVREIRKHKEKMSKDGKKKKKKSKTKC
HRAS Wild Type, sequence (P01112 2-184): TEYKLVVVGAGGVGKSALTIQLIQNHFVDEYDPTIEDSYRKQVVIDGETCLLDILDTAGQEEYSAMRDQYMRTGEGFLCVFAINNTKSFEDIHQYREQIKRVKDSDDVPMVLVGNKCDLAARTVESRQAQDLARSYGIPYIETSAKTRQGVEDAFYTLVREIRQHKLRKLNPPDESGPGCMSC
NRAS Wild Type, sequence (P01111 2-185): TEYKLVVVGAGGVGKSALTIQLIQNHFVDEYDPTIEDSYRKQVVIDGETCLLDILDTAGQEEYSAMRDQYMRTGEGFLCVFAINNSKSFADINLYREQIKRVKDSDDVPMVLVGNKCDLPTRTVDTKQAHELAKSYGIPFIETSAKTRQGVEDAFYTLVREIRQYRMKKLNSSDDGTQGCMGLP

| SMILES | IC50 [1] | IC50 [2] | IC50 [3] | Kd [4] | Kd [5] | Kd [6] | Kd [7] | Kd [8] | Kd [9] |
| --- | --- | --- | --- | --- | --- | --- | --- | --- | --- |
| F/C=C1\CN2CCC[C@@]2(COc2nc3c4c(nc(-c5c(C6CC6)c(Cl)cc6[nH]ncc56)c(F)c4n2)OC[C@@H]2COCCCN32)C1 [Example 16, (8aS)-5-(6-chloro-5-cyclopropyl-1H-indazol-4-yl)-4-fluoro-2-{[(2Z,7aS)-2-(fluoromethylidene)tetrahydro-1H-pyrrolizin-7a(5H)-yl]methoxy}-8a,9,12,13-tetrahydro-8H,11H-7,10-dioxa-1,3,6,13a-tetraazanaphtho[1,8-ab]heptalene] | 22 nM | 2 nM | 23 nM | 4 nM | > 10000 nM | 3 nM | 4 nM | 4 nM | > 10000 nM |
| Fc1c(-c2c(C3CC3)c(Cl)cc3[nH]ncc23)nc2c3c(nc(OC[C@]45CCCN4CC4(CC4)C5)nc13)N1CCCOC[C@H]1CO2 [Example 19, (8aS)-2-{[(7′aR)-dihydro-1′H,3′H-spiro[cyclopropane-1,2′-pyrrolizin]-7′a(5′H)-yl]methoxy}-5-(6-chloro-5-cyclopropyl-1H-indazol-4-yl)-4-fluoro-8a,9,12,13-tetrahydro-8H,11H-7,10-dioxa-1,3,6,13a-tetraazanaphtho[1,8-ab]heptalene] | 62 nM | 3 nM | 103 nM | 5 nM | > 10000 nM | 6 nM | 8 nM | 9 nM | > 10000 nM |
| C=C1CN2CCC[C@@]2(COc2nc3c4c(nc(-c5c(C6CC6)ccc6[nH]ncc56)c(F)c4n2)OC[C@@H]2COCCCN32)C1 [Example 20, (8aS)-5-(5-cyclopropyl-1H-indazol-4-yl)-4-fluoro-2-{[(7aS)-2-methylidenetetrahydro-1H-pyrrolizin-7a(5H)-yl]methoxy}-8a,9,12,13-tetrahydro-8H,11H-7,10-dioxa-1,3,6,13a-tetraazanaphtho[1,8-ab]heptalene] | 275 nM | 17 nM | 400 nM | 31 nM | > 10000 nM | 51 nM | 91 nM | 50 nM | > 10000 nM |
| C=C1CN2CCC[C@@]2(COc2nc3c4c(nc(-c5c(C6CC6)c(Cl)cc6[nH]ncc56)c(F)c4n2)OC[C@@H]2CCCCN32)C1 [Example 21, (8aS)-5-(6-chloro-5-cyclopropyl-1H-indazol-4-yl)-4-fluoro-2-{[(7aS)-2-methylidenetetrahydro-1H-pyrrolizin-7a(5H)-yl]methoxy}-8,8a,9,10,11,12-hexahydro-7-oxa-1,3,6,12a-tetraazabenzo[4,5]cyclohepta[1,2,3-de]naphthalene] | 381 nM | 8 nM | 268 nM | 14 nM | > 10000 nM | 21 nM | 31 nM | 15 nM | > 10000 nM |
| C=C1CN2CCC[C@@]2(COc2nc3c4c(nc(-c5c(C6CC6)c(Cl)cc6[nH]ncc56)c(F)c4n2)OC[C@@H]2COCCN32)C1 [Example 22, (8aS)-5-(6-chloro-5-cyclopropyl-1H-indazol-4-yl)-4-fluoro-2-{[(7aS)-2-methylidenetetrahydro-1H-pyrrolizin-7a(5H)-yl]methoxy}-8a,9,11,12-tetrahydro-8H-7,10-dioxa-1,3,6,12a-tetraazabenzo[4,5]cyclohepta[1,2,3-de]naphthalene] | 636 nM | 98 nM | 839 nM | – | > 10000 nM | 250 nM | – | – | > 10000 nM |
| C=C1CN2CCC[C@@]2(COc2nc3c4c(nc(-c5c(C6CC6)c(Cl)cc6[nH]ncc56)c(F)c4n2)OC[C@@H]2CC[C@H](O)CN32)C1 [Example 23, (8aS,11S)-5-(6-chloro-5-cyclopropyl-1H-indazol-4-yl)-4-fluoro-2-{[(7aS)-2-methylidenetetrahydro-1H-pyrrolizin-7a(5H)-yl]methoxy}-8,8a,9,10,11,12-hexahydro-7-oxa-1,3,6,12a-tetraazabenzo[4,5]cyclohepta[1,2,3-de]naphthalen-11-ol] | 102 nM | 3 nM | 156 nM | 3 nM | > 10000 nM | 3 nM | 3 nM | 2 nM | > 10000 nM |
| C=C1CN2CCC[C@@]2(COc2nc3c4c(nc(-c5c(C(C)C)c(Cl)cc6[nH]ncc56)c(F)c4n2)OC[C@@H]2COCCCN32)C1 [Example 24, (8aS)-5-[6-chloro-5-(propan-2-yl)-1H-indazol-4-yl]-4-fluoro-2-{[(7aS)-2-methylidenetetrahydro-1H-pyrrolizin-7a(5H)-yl]methoxy}-8a,9,12,13-tetrahydro-8H,11H-7,10-dioxa-1,3,6,13a-tetraazanaphtho[1,8-ab]heptalene] | 45 nM | 6 nM | 18 nM | 4 nM | > 10000 nM | 5 nM | 7 nM | 5 nM | > 10000 nM |
| C/C=C1\CN2CCC[C@@]2(COc2nc3c4c(nc(-c5c(C6CC6)c(Cl)cc6[nH]ncc56)c(F)c4n2)OC[C@@H]2COCCCN32)C1 [Example 26, (8aS)-5-(6-chloro-5-cyclopropyl-1H-indazol-4-yl)-2-{[(2Z,7aS)-2-ethylidenetetrahydro-1H-pyrrolizin-7a(5H)-yl]methoxy}-4-fluoro-8a,9,12,13-tetrahydro-8H,11H-7,10-dioxa-1,3,6,13a-tetraazanaphtho[1,8-ab]heptalene] | 17 nM | 2 nM | 16 nM | 1 nM | > 10000 nM | 1 nM | 2 nM | 1 nM | > 10000 nM |
| COC/C=C1\CN2CCC[C@@]2(COc2nc3c4c(nc(-c5c(C6CC6)c(Cl)cc6[nH]ncc56)c(F)c4n2)OC[C@@H]2COCCCN32)C1 [Example 28, (8aS)-5-(6-chloro-5-cyclopropyl-1H-indazol-4-yl)-4-fluoro-2-{[(2Z,7aS)-2-(2-methoxyethylidene)tetrahydro-1H-pyrrolizin-7a(5H)-yl]methoxy}-8a,9,12,13-tetrahydro-8H,11H-7,10-dioxa-1,3,6,13a-tetraazanaphtho[1,8-ab]heptalene] | 19 nM | 4 nM | 26 nM | 2 nM | > 10000 nM | 1 nM | 3 nM | 2 nM | > 10000 nM |
| C=C1CN2CCC[C@@]2(COc2nc3c4c(nc(-c5c6c(cc7[nH]ncc57)CCC[C@H]6C)c(F)c4n2)OC[C@@H]2COCCCN32)C1 [Example 29, (8aS)-4-fluoro-2-{[(7aS)-2-methylidenetetrahydro-1H-pyrrolizin-7a(5H)-yl]methoxy}-5-[(5R)-5-methyl-5,6,7,8-tetrahydro-1H-benzo[f]indazol-4-yl]-8a,9,12,13-tetrahydro-8H,11H-7,10-dioxa-1,3,6,13a-tetraazanaphtho[1,8-ab]heptalene] | 4 nM | < 1 nM | 8 nM | 1 nM | > 10000 nM | 1 nM | 1 nM | 2 nM | > 10000 nM |
